Assay results from patent publication US7189505B2, “Methods of assessing HIV integrase inhibitor therapy” (Tibotec BVBA, priority 2001, dated 2007).

Columns and labels:
Type in all cases: cell-based, HIV-1
[1] = system: recombinant virus generated from HXB2D site-directed mutant virus, integrase T66I mutation; test: Antiviral experiment with recombinant virus from site-directed mutant virus, T66I; settings: versus wild type, MT4-LTR-EGFP cells
Method: (§1) The integrase encoding sequence was amplified from either wildtype HIV-1 (IIIB) or NL4.3 virus, or HXB2D site-directed mutant viruses containing mutations in integrase (such as T66I, S153Y, M154I, or combinations thereof) (Hazuda et al., Science 2000, 287, 646–650), or patient samples. Starting from RNA, extracted from virus supernatant or plasma using the QIAamp® viral RNA extraction kit (Qiagen), cDNA was synthesized by reverse transcription (Expand™ reverse transcriptase, 30 min at 42° C.) with the primer 3′EGINT10 (SEQ ID NO 11), followed by a nested PCR. […]
(§2) Recombinant virus was produced by co-transfection by electroporation of the SmaI-linearized IN-deletion construct and the integrase amplicon into MT4 cells or MT4 cells equipped with an LTR driven reporter gene construct. Production of recombinant virus was evaluated by scoring the cytopathogenic effect (CPE) that is induced by HIV-infection of MT4 cells or by the LTR-driven reporter signal induced by HIV infection in MT4 reporter cells. […]

[2] = system: recombinant virus generated from HXB2D site-directed mutant virus, integrase S153Y; test: Antiviral experiment with recombinant virus from site-directed mutant virus, S153Y; settings: S153Y mutation in integrase; versus wild type; MT4-LTR-EGFP cells
Method: as §1, §2

[3] = system: recombinant virus generated from HXB2D site-directed mutant virus, integrase M154I mutation; test: Antiviral experiment with recombinant virus from site-directed mutant virus, M154I; settings: versus wild type, MT4-LTR-EGFP cells
Method: as §1, §2

[4] = system: recombinant virus generated from HXB2D site-directed mutant virus, integrase T66I/S153Y mutations; test: Antiviral experiment with recombinant virus from site-directed mutant virus, T66I/S153Y; settings: versus wild type, MT4-LTR-EGFP cells
Method: as §1, §2

[5] = system: recombinant virus generated from HXB2D site-directed mutant virus, integrase T66I/M154I mutations; test: Antiviral experiment with recombinant virus from site-directed mutant virus, T66I/M154I; settings: versus wild type, MT4-LTR-EGFP cells
Method: as §1, §2

CC(C)Oc1ccc(Cc2ccccc2)cc1C(=O)CC(=O)C(=O)O [compound 4, 2-(1-methylethyloxy)-, -dioxo-5-(phenylmethyl)-benzenebutanoic acid]
fold increase in EC50 [1]: 2 fold
fold increase in EC50 [2]: 5 fold
fold increase in EC50 [3]: 3 fold
fold increase in EC50 [4]: 10 fold
fold increase in EC50 [5]: 10 fold
